Reference: patent US10485844B2, “Methods for treating severe atopic dermatitis by administering an IL-4R inhibitor” (Regeneron Pharmaceuticals, Inc., priority 2016, dated 2019)
Entries after “also recorded” stand apart in the source; their conditions may differ.

Assays:
[1] = tested on: adult patients with severe AD; assay: 16-week randomized placebo-controlled trial of dupilumab + TCS in adults with severe AD not adequately controlled with or intolerant to cyclosporine A (efficacy and safety);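 further: subcutaneous dosing after a 600 mg loading dose on day 1, with standardized medium-potency TCS background from day −14, compared against matching injectable placebo arm, 1:1:1 randomization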
From the text: The study comprises a 2-week screening period, a 2-week medium-potency TCS standardization period, a 16-week treatment period, and a 12-week safety follow up period. […] All patients receive concomitant medium-potency TCS as background concomitant therapy to reflect standard of care treatment of this severe population.
Starting on day −14, all patients initiate a standardized TCS treatment regimen, and continue the standardized medium-potency regimen through the end of the treatment period (week 16). During the 12-week follow-up period, they may continue to receive TCS at the discretion of the investigator, for intolerable AD disease activity.
Patients who continue to meet eligibility criteria at baseline (day 1) undergo assessments and are randomized in a 1:1:1 ratio to receive either once-weekly (qw) or every 2 week (q2w) subcutaneous (SC) injections of 300 mg dupilumab (following an SC loading dose of 600 mg on day 1), or matching injectable placebo, including the placebo for the loading dose. During weeks in which dupilumab is not administered (in the q2w regimen), patients receive injectable placebo.
Patients receive either qw SC injections of 300 mg dupilumab (following a loading dose of 600 mg on day 1), or q2w SC injections of 300 mg dupilumab (following a loading dose of 600 mg on day 1) during the 16-week treatment period. During weeks in which dupilumab is not administered (in the q2w regimen), patients receive injectable placebo.
The primary endpoint in the study is: the proportion of patients with Eczema Area and Severity Index (EASI) 75 (≥75% improvement from baseline) at week 16.
⋅ Proportion of patients with EASI 75 (75% improvement from baseline) at week 16 for patients with prior CSA use; ⋅ Proportion of patients with IGA 0 or 1 (on a 5-point scale) and a reduction from baseline of points at week 16; ⋅ Percent change from baseline to week 16 in the pruritus numerical rating scale (NRS); ⋅ Proportion of patients with improvement (reduction) of pruritus NRS at week 16; ⋅ Percent change from baseline to week 16 in the EASI score; ⋅ Change from baseline to week 16 in percent body surface area (BSA); ⋅ Percent change from baseline to week 16 in the SCORing Atopic Dermatitis (SCORAD); ⋅ Proportion of patients with SCORAD 50 (≥50% improvement from baseline) at week 16; ⋅ Percent change from baseline to week 16 in the Global Individual Signs Score (GISS) (erythema, infiltration/papulation, excoriations, lichenification); ⋅ Change from baseline to week 16 in the Dermatology Life Quality Index (DLQI); ⋅ Change from baseline to week 16 in the Patient Oriented Eczema Measure (POEM); ⋅ Change from baseline to week 16 in the Hospital Anxiety and Depression Scale (HADS); ⋅ Percent change from baseline to week 2 in the pruritus NRS; ⋅ Mean weekly dose of TCS through week 16
A variety of parameters are collected during the study to assess efficacy/effectiveness of dupilumab including measures of AD severity, use of concomitant treatment for AD, and patient reported measures of AD symptoms and QOL. Efficacy is assessed using pruritus NRS, pruritus categorical scale, POEM, HADS, DLQI, the European Quality of Life-5 Dimensions (EQ-5D), Patient Global Assessment of Disease, Patient Global Assessment of Treatment, Asthma Control Questionnaire (ACQ-5), the Sino-Nasal Outcome Test (SNOT-22), assessment of sick leave/missed school days, IGA, EASI, BSA of involvement of AD, GISS and SCORAD.

[2] = tested on: adults with moderate-to-severe atopic dermatitis; assay: Phase 3 open-label trial: dupilumab-naïve vs retreated patients (treatment interruption); conditions: for adverse events/100 patient years: to Wk52; for decrease in peak pruritus NRS score from baseline of parent study / patients who achieved EASI-75 (from baseline of parent study) / patients with Investigator's Global Assessment score of 0 or 1: Wk52
Protocol: This Example presents an interim analysis of an ongoing multicenter, open-label trial (NCT01949311) of dupilumab treatment for up to 3 yrs. Adults with moderate-to-severe atopic dermatitis (AD) were enrolled after participation in prior dupilumab trials. Safety and efficacy at Week [Wk] 52 for dupilumab naïve (previously unexposed) and retreated (>13 Wk gap between parent and open-label study) patients were evaluated.

CYP3A = assay: Effect of dupilumab on PK of CYP substrate cocktail: midazolam; conditions: 600 mg loading dose, then 300 mg weekly
Protocol: Subcutaneous dupilumab was administered as a 600 mg loading dose on Day 8, followed by a weekly dose of 300 mg from Day 15 to Day 50. PK parameters included Geometric Mean Ratios (GMR) of AUClast (area under the plasma concentration-time curve from time zero to the time of the last quantifiable concentration) and Cmax (maximum observed plasma concentration) measured at Day 1 and Day 36, while efficacy assessments included changes in Eczema Area and Severity Index (EASI) scores (scale 0-72).

[3] = Functional dupilumab concentrations in serum, 52-week trial with TCS; format: in vivo, human; conditions: Week 16
Protocol: The clinical trial was a 52-week randomized, multicenter, double-blind, placebo-controlled trial of subcutaneous dupilumab with concomitant topical corticosteroids (TCS) in 740 adult patients (NCT02260986) randomized 3:1:3 to placebo, dupilumab 300 mg every 2 weeks (q2w) and dupilumab 300 mg every week (qw); patients randomized to dupilumab received a loading dose of 600 mg. An open-label extension study of dupilumab 300 mg qw (NCT01949311) is ongoing in patients who participated in prior studies and results from 1076 patients treated for up to 68 weeks are also reported. This Example describes functional dupilumab concentrations measured in serum from blood samples at various time-points and analyzed using descriptive statistics.

[4] = tested on: adults with moderate-to-severe AD; assay: 1-year placebo-controlled trial of dupilumab + TCS: subgroup analysis by CsA eligibility / CsA history; format: in vivo, human; conditions: for proportion of patients achieving a 75% improvement in EASI / proportion of patients achieving a ≥4-point improvement in peak pruritus numerical rating scale / Patients achieving EASI-75, n (%) / Patients achieving a peak pruritus NRS score improvement ≥4 points from baseline, n/N1 (%): Week 52; for Patients achieving a peak pruritus NRS score improvement ≥4 points from baseline, n/N1 (%): baseline NRS ≥4
Protocol: Patients were randomized 3:1:3 (dupilumab 300 mg weekly [qw], every two weeks [q2w], or placebo). Patients received concomitant low and/or medium potency TCS, which could be tapered and discontinued based on clinical response. Topical calcineurin inhibitors could be used in areas considered inadvisable for TCS.
In further analysis, the efficacy and safety of dupilumab vs placebo (PBO) at 52 weeks was compared in two patient (pt) subsets of the population: pts who were earlier treated with CsA but responded inadequately or were intolerant to CsA (subset A; n=114) and the remaining study population (subset B; n=509). Subset A pts had, on average, more severe disease than subset B pts, as assessed by Eczema Area and Severity Index (EASI) (mean baseline±SD EASI score 37.0±12.70 vs 31.6±12.77; nominal p<0.0001 [post-hoc analysis]).

[5] = dupilumab 300 mg qw + TCS, week 16
[6] = expected at the end of the study period

## dupilumab: fully human anti-IL-4R antibody; heavy chain SEQ ID NO: 9, light chain SEQ ID NO: 10
[1]; [5]
  % change in baseline in weekly average of peak daily pruritus NRS: −51.7%
  % patients with EASI-75: 59.1%
  % patients with IGA 0 or 1 and reduction from baseline of ≥2 points: 39.1%
  Change from baseline in % BSA: −37.5 % BSA
  Change from baseline in DLQI: −8.9
  Change from baseline in HADS: −5.2
  Change from baseline in POEM: −11.4
[1]; dupilumab 300 mg qw + TCS, week 16, N = 69
  % patients with EASI-75 for patients with prior CSA use: 56.5%
[1]; dupilumab 300 mg qw + TCS, week 16, N = 94
  % patients with reduction of weekly average peak daily pruritus NRS ≥4 from baseline: 40.4%
[1]; dupilumab groups, higher rate in 300 mg qw than 300 mg q2w, no severe ISRs
  Injection site reactions vs placebo: more common
[1]; dupilumab plus concomitant TCS, 16-week treatment period
  tolerability / safety profile: generally well tolerated
[1]; dupilumab-treated groups, more events in 300 mg Q2W than 300 mg QW
  incidence of conjunctivitis vs placebo: higher incidence
[1]; [6]
  improvement in at least one AD-associated parameter as compared to placebo: significant improvement
  less TCS used than placebo: up to 50%
[1]; in each treatment group
  Serious adverse events: 2 events
[2]; dupilumab-naïve patients
  serious AEs/100PY: 11.7 serious AEs/100PY
  treatment discontinuations due to AEs: 2.6%
[2]; dupilumab-naïve patients (n=116)
  adverse events/100 patient years: 432.5 AEs/100PY
[2]; naïve and retreated patients
  deaths: no deaths
[2]; naïve patients
  decrease in peak pruritus NRS score from baseline of parent study: 64.9%
  patients who achieved EASI-75 (from baseline of parent study): 73.3%
  patients with Investigator's Global Assessment score of 0 or 1: 49.1%
[2]; retreated patients
  serious AEs/100PY: 5.4 serious AEs/100PY
  treatment discontinuations due to AEs: 2.8%
  decrease in peak pruritus NRS score from baseline of parent study: 60.6%
  patients who achieved EASI-75 (from baseline of parent study): 80.7%
  patients with Investigator's Global Assessment score of 0 or 1: 50.7%
[2]; retreated patients (>13 Wk gap; n=290)
  adverse events/100 patient years: 371.0 AEs/100PY
CYP3A
  effect of dupilumab on the PK of midazolam / activity of CYP3A: no meaningful effect; also recorded: does not have a meaningful effect
[3]; 300 mg q2w (600 mg loading dose) with TCS
  mean functional concentration of dupilumab in serum: 80 mg/L
[3]; 300 mg qw (600 mg loading dose) with TCS
  mean functional concentration of dupilumab in serum: 185 mg/L
[4]; CSA-eligible, dupilumab q2w
  treatment-emergent adverse event (TEAE) rate: 87.2%
[4]; CSA-eligible, dupilumab qw
  treatment-emergent adverse event (TEAE) rate: 81.7%
[4]; CSA-ineligible, dupilumab q2w
  treatment-emergent adverse event (TEAE) rate: 91.7%
[4]; CSA-ineligible, dupilumab qw
  treatment-emergent adverse event (TEAE) rate: 88.5%
[4]; CsA-eligible, dupilumab 300 mg q2w + TCS
  proportion of patients achieving a 75% improvement in EASI: 69.1%
[4]; CsA-eligible, dupilumab 300 mg qw + TCS
  proportion of patients achieving a 75% improvement in EASI: 67.0%
[4]; CsA-eligible, dupilumab q2w
  proportion of patients achieving a ≥4-point improvement in peak pruritus numerical rating scale: 53.8%
[4]; CsA-eligible, dupilumab qw
  proportion of patients achieving a ≥4-point improvement in peak pruritus numerical rating scale: 39.7%
[4]; CsA-ineligible, dupilumab 300 mg q2w + TCS
  proportion of patients achieving a 75% improvement in EASI: 52.4%
[4]; CsA-ineligible, dupilumab 300 mg qw + TCS
  proportion of patients achieving a 75% improvement in EASI: 50.0%
[4]; CsA-ineligible, dupilumab q2w
  proportion of patients achieving a ≥4-point improvement in peak pruritus numerical rating scale: 42.9%
[4]; CsA-ineligible, dupilumab qw
  proportion of patients achieving a ≥4-point improvement in peak pruritus numerical rating scale: 35.6%
[4]; Subset A (inadequate response or intolerance to CsA), Dupilumab 300 mg Q2W ± TCS (N = 19)
  Patients achieving EASI-75, n (%): (52.6) %
[4]; Subset A, Dupilumab 300 mg Q2W ± TCS
  Patients achieving a peak pruritus NRS score improvement ≥4 points from baseline, n/N1 (%): (47.4) %
[4]; Subset A, Dupilumab 300 mg QW ± TCS (N = 43)
  Patients achieving EASI-75, n (%): (48.8) %
[4]; Subset A, Dupilumab 300 mg QW ± TCS
  Patients achieving a peak pruritus NRS score improvement ≥4 points from baseline, n/N1 (%): (38.1) %
[4]; Subset B (remaining study population), Dupilumab 300 mg Q2W ± TCS (N = 70)
  Patients achieving EASI-75, n (%): (68.6) %
[4]; Subset B, Dupilumab 300 mg Q2W ± TCS
  Patients achieving a peak pruritus NRS score improvement ≥4 points from baseline, n/N1 (%): (52.2) %
[4]; Subset B, Dupilumab 300 mg QW ± TCS (N = 227)
  Patients achieving EASI-75, n (%): (67.0) %
[4]; Subset B, Dupilumab 300 mg QW ± TCS
  Patients achieving a peak pruritus NRS score improvement ≥4 points from baseline, n/N1 (%): (39.1) %
